The results in this text go back to ChEMBL document CHEMBL1122731, “Potential synthetic codeine substitutes: (-)-3-O-aryl-N-methylmorphinans” (J Med Chem, 1984).

Each structure is given as a SMILES string.

Common to all, as to format: functional
Test [1] concerns Mus musculus. Briefly: Compound was tested for analgesic activity by writhing test after subcutaneous administration in mice. The following applies: sc. (In general: Writhing tests count abdominal constrictions after an irritant is injected.)
Test [2] deals with Mus musculus. Put plainly: Compound was tested for analgesic activity by tail-flick test after subcutaneous administration in mice. The following applies: sc. Background: Hot-plate and tail-flick tests time the reaction to a heat stimulus.
The test system of test [3] is Mus musculus. Briefly: Compound was tested for analgesic activity by tail-flick test after peroral administration in mice. The settings on record: po.
In test [4] the test system is Mus musculus. Put plainly: Compound was tested for analgesic activity by writhing test after peroral administration in mice. The following applies: po.

The ED50 is the dose at which the effect has come halfway, by size or by number of responders.

As to `CCO.CN1CC[C@]23CCCC[C@H]2[C@H]1Cc1ccc(Oc2cccc(O)c2)cc13.O=C(O)C(O)C(O)C(=O)O`, the ED50 was 9 mg/kg in the test with Mus musculus [1] and 80.1 mg/kg in the test on Mus musculus [2].

For the compound `CN1CC[C@]23CCCC[C@H]2[C@H]1Cc1ccc(Oc2ccccn2)cc13.O=C(O)C(O)C(O)C(=O)O`, the ED50 in the test on Mus musculus [1] came to 1.1 mg/kg; in the test with Mus musculus [2] it was 10.1 mg/kg.

Consider `CN1CC[C@]23c4c5ccc(O)c4O[C@H]2[C@@H](O)C=C[C@H]3[C@H]1C5.CN1CC[C@]23c4c5ccc(O)c4O[C@H]2[C@@H](O)C=C[C@H]3[C@H]1C5.O=S(=O)(O)O`, for which the ED50 is 31.2 mg/kg in the test with Mus musculus [3] and 0.46 mg/kg with Mus musculus [1].

For `CN1CC[C@]23CCCC[C@H]2[C@H]1Cc1ccc(Oc2ccccc2)cc13.O=C(O)C(O)C(O)C(=O)O`, the ED50 in the test with Mus musculus [3] was found to be 51.7 mg/kg; with Mus musculus [4] it was 2.3 mg/kg; in the test with Mus musculus [1] it was 1.25 mg/kg; in the test with Mus musculus [2], 19.7 mg/kg.

In the case of `Cc1ccc(Oc2ccc3c(c2)[C@@]24CCCC[C@H]2[C@@H](C3)N(C)CC4)cc1.Cl`, the 50% effect level in the test with Mus musculus [1] (ED50) was put at a dose of 23 mg/kg.

As for `CN1CC[C@]23CCCC[C@H]2[C@H]1Cc1ccc(Oc2ccc(O)cc2)cc13.Cl`, the ED50 with Mus musculus [1] came out at 1.3 mg/kg; in the test with Mus musculus [2], 6.69 mg/kg.

Take `COc1ccccc1Oc1ccc2c(c1)[C@@]13CCCC[C@H]1[C@@H](C2)N(C)CC3`: the median effective dose (ED50) amounted to 0.49 mg/kg in the test with Mus musculus [1] and 24.4 mg/kg with Mus musculus [2].

Turning to `COc1cccc(Oc2ccc3c(c2)[C@@]24CCCC[C@H]2[C@@H](C3)N(C)CC4)c1`, the values for the ED50 with Mus musculus [1] and in the test with Mus musculus [2] were 2.5 mg/kg and 39.7 mg/kg, respectively.

Turning to `CN1CC[C@]23CCCC[C@H]2[C@H]1Cc1ccc(Oc2ccc(F)cc2)cc13`, the median effective dose (ED50) turned out to be 1 mg/kg with Mus musculus [1] and 37.3 mg/kg in the test with Mus musculus [2].

With `COc1ccc(Oc2ccc3c(c2)[C@@]24CCCC[C@H]2[C@@H](C3)N(C)CC4)cc1`, the ED50 with Mus musculus [1] is 2.1 mg/kg; in the test with Mus musculus [2], 25 mg/kg.

As for `Br.COc1ccc2c(c1)[C@@]13CCCCC1[C@@H](C2)N(C)CC3` (some centres not stated) [LEVOMETHORPHAN HYDROBROMIDE], the values for the ED50 in the test with Mus musculus [3], with Mus musculus [4] and in the test with Mus musculus [1] were 5.27 mg/kg, 1.5 mg/kg and 0.64 mg/kg, respectively.

Consider `CN1CC[C@]23CCCC[C@H]2[C@H]1Cc1ccc(O)cc13.O=C(O)C(O)C(O)C(=O)O`, for which the ED50 with Mus musculus [3] is 8.5 mg/kg; in the test with Mus musculus [4], 1.4 mg/kg; in the test with Mus musculus [1], 0.11 mg/kg; with Mus musculus [2] it was 1.21 mg/kg.

As to `CN1CC[C@]23CCCC[C@H]2[C@H]1Cc1ccc(Oc2cccc(F)c2)cc13.O.O=C(O)C(O)C(O)C(=O)O`, the values for the ED50 with Mus musculus [1] and in the test with Mus musculus [2] were 1.85 mg/kg and 71 mg/kg, respectively.

As to `CN1CC[C@]23CCCC[C@H]2[C@H]1Cc1ccc(Oc2ccccc2F)cc13.O=C(O)C(=O)O`, the ED50 turned out to be 3 mg/kg in the test with Mus musculus [1] and 23.3 mg/kg in the test with Mus musculus [2].

In the case of `COc1ccc2c3c1O[C@H]1[C@@H](O)C=C[C@H]4[C@@H](C2)N(C)CC[C@@]341.COc1ccc2c3c1O[C@H]1[C@@H](O)C=C[C@H]4[C@@H](C2)N(C)CC[C@@]341.O.O=P(O)(O)O.O=P(O)(O)O` [CODEINE PHOSPHATE], the ED50 in the test on Mus musculus [3] came out at 119 mg/kg; in the test with Mus musculus [4], 24 mg/kg; in the test with Mus musculus [1], 2.3 mg/kg.

`CCO.CN1CC[C@]23CCCC[C@H]2[C@H]1Cc1ccc(Oc2ccccc2O)cc13.O=C(O)C(O)C(O)C(=O)O`: the ED50 in the test on Mus musculus [1] came out at 1.8 mg/kg; with Mus musculus [2] it was 11.4 mg/kg.
